Experimental findings from paper PMC9791135, “A penetratin-derived peptide reduces the membrane permeabilization and cell toxicity of α-synuclein oligomers” (The Journal of Biological Chemistry, 2022) are described below.

Data set [1] is described as follows: ThT monitoring of peptides alone for self-fibrillation. It is filed as physicochemical. Particulars: peptide alone (controls 1 mg/mL), 37 °C with shaking. The protocol:
To test the effects of these selected nine peptides on the aggregation of α-syn, we performed a thioflavin T (ThT) fluorescence assay in the presence of 1 mg/ml α-syn and 0 to 0.5 mg/ml peptide for 48 h (raw data in Fig. S3). Furthermore, the peptides alone were monitored for self-fibrillation. […] High concentrations of p222, p194, and p249 led to a decline in ThT fluorescence after reaching a plateau, possibly because of the formation of insoluble amorphous species. We also carried out seeding experiments by adding 5% sonicated preaggregated α-syn fibrils to the ThT assay.
About 150 μl of 70 μM (1 mg/ml) α-syn, 40 μM ThT, and varying amounts of peptides (0, 0.06, 0.125, 0. 25, 0.375, and 0.5 mg/ml) were transferred in triplicates to a black COSTAR 96-well clear bottom plate (Nunc, Thermo Fisher Scientific), and including a 3 mm diameter glass bead (Glaswarenfabrik Karl Hecht GmbH & Co KG) per well to increase reproducibility ([100]). The plate was sealed with Crystal Clear sealing tape (Hampton Research) and incubated at 37 °C in a CLARIOstar Plus (BMG LABTECH) fluorescence plate reader. Fibrillation was carried out for ∼48 h with 300 rpm double orbital shaking between the readings for 372 s (excitation/emission: 448∕485 nm). […]
[picture] […] The effect of the 9 peptides on α-syn fibrillation monitored by ThT fluorescence. […]

In data set [2] the test system is SH-SY5Y cells. To be noted: αSOs with peptide, MTT. The protocol: The effect of the peptides on αSOs toxicity in SH-SY5Y cells using 3-(4, 5-dimethylthiazol-2-yl)-2,5-diphenyltetrazolium bromide (MTT) cell viability assay was also tested to complement our calcein data.
We used the MTT assay to measure cell viability after 24 h treatment with αSOs in the presence of peptides. SH-SY5Y cells were seeded in 96-well plates at a density of 5 × 10^4 cell/ml in Dulbecco's modified Eagle's medium supplemented with 10% FBS, 100 unit/ml penicillin, and […]. The cells were incubated in a humidified atmosphere incubator with 5% CO2 and 95% humidity at 37 °C for 24 h. The culture medium was then replaced with fresh medium containing 10 μM αSOs with peptides and incubated for another 24 h. Then the cell medium was replaced with a fresh medium containing 20% MTT (5 mg/ml), and the cells were incubated for an additional 4 h at 37 °C. Then 100 μl of dimethyl sulfoxide was added to dissolve formazan crystals by incubating for 30 min on a shaker at RT. Consequently, absorbance was measured by using a plate reader at 570 nm.

Where a SMILES comes first, the peptide text is derived from it.

For “RQIKIWFQNRRFKWKK [p222, penetratin with modulated hydrophobicity]”, in data set [1], the “Self-fibrillation of the peptide alone” value is “slight self-fibrillation tendencies”.

For `CC[C@H](C)[C@H](NC(=O)[C@H](Cc1ccccc1)NC(=O)[C@H](Cc1c[nH]c2ccccc12)NC(=O)[C@H](CCCNC(=N)N)NC(=O)[C@H](CC(N)=O)NC(=O)[C@@H](NC(=O)[C@H](CCC(N)=O)NC(=O)[C@H](CCCCN)NC(=O)[C@@H](N)CCSC)[C@@H](C)CC)C(=O)N[C@@H](CCCNC(=N)N)C(=O)N[C@@H](Cc1c[nH]c2ccccc12)C(=O)N[C@@H](CCC(N)=O)C(=O)N[C@@H](CCCCN)C(=O)N[C@@H](CCCCN)C(=O)N[C@@H](CCCNC(=N)N)C(=O)N[C@@H](CCCCN)C(=O)O` [p249] (H-MKQINRWFIRWQKKRK-OH; N-terminus and C-terminus assumed), in data set [2], the “Effect on cell survival in the presence of toxic αSOs, in words” value is listed as “did not show positive effects”.

Turning to `CC[C@H](C)[C@H](NC(=O)[C@H](Cc1c[nH]c2ccccc12)NC(=O)[C@H](CCCNC(=N)N)NC(=O)[C@H](Cc1c[nH]c2ccccc12)NC(=O)[C@H](CCCCN)NC(=O)[C@@H](NC(=O)[C@H](CCCCN)NC(=O)[C@H](CCC(N)=O)NC(=O)[C@@H](N)CC(N)=O)[C@@H](C)CC)C(=O)N[C@@H](CCC(N)=O)C(=O)N[C@@H](CCCNC(=N)N)C(=O)N[C@@H](Cc1ccccc1)C(=O)N[C@@H](CCCNC(=N)N)C(=O)N[C@@H](CCCCN)C(=O)N[C@@H](CCCCN)C(=O)N[C@@H](CCSC)C(=O)O` [p235] (H-NQKIKWRWIQRFRKKM-OH; N-terminus and C-terminus assumed), the “Effect on cell survival in the presence of toxic αSOs, in words” value in data set [2] is “did not show positive effects”.
